Columns and labels:
eGFP-C-TDP-43 = target: T1, eGFP-C-TDP-43 (Homo sapiens, UniProt Q13148); test: SDS-PAGE dose dependency of eGFP-C-TDP-43 degradation; format: cell-based, mouse; settings: Neuro-2a cells
T1 construct: expressed in transfected cells; host or cells: Neuro-2a (mouse neuroblastoma)
Protocol: Proteins were separated using 12% Tris-glycine SDS-PAGE. Proteins were transferred onto PVDF membrane (Millipore). Blots were blocked with 5% bovine serum albumin (BSA, Sigma) in 0.1% PBST for at least 1 hour. After blocking, blots were subjected to incubation with the primary antibodies TDP-43 (C-terminal) (1:1,000, Proteintech), TDP-43 (1:1,000, Abcam), p-TDP-43 (pS409/410) (1:1,000, Cosmo Bio), GFP (1:1,000, Abcam), All (1:1,000, Invitrogen), GAPDH (1:10,000, GeneTex), or β-actin (1:10,000, GeneTex) in 2% BSA and incubated overnight at 4° C. on a shaker. After washed with PBST, the blots were further incubated with HRP-labelled secondary antibodies (1:3,000, GeneTex) at room temperature for another 1 hour. The blots were washed and developed with electrochemiluminescence (ECL, Millipore). The signals were visualized with luminescence (iBright™ FL1000 instrument, Invitrogen).
Based on the amount of j-actin (internal control) on NC membrane, overexpression of eGFP-C-TDP-43 did induce a significant amount of C-TDP-43 species (mock control, 1.08±0.31, the black bar in FIG. 1, (B)) comparing with that in blank control of Neuro-2a cells (0.38±0.08, the white bar in FIG. 1, (B)). […]

[1] = target: T2, C-TDP-43 oligomeric intermediates (Homo sapiens, UniProt Q13148); test: FLIM-FRET of C-TDP-43 oligomeric intermediates in Neuro-2a cells; format: cell-based, mouse
T2 construct: expressed in transfected cells; host or cells: Neuro-2a (mouse neuroblastoma)
T2 sequence (Q13148 208-414 limits assumed): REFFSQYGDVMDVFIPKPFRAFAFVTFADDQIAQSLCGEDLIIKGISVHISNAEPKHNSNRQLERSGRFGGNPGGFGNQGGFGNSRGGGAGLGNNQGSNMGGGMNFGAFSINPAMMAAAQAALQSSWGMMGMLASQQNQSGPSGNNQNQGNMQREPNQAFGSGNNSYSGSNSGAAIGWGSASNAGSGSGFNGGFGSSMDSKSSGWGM
T2 sequence (Q13148 208-414 limits assumed): as above
Protocol: To study the EFRET of oligomeric intermediates of C-TDP-43, we seeded 2×10^6 cells/dish of Neuro-2a cells in sterile 35 mm μ-Dish and transfected with either both 0.55 μg eGFP-C-TDP-43 and 0.55 μg mCherry-C-TDP-43 or both 0.55 μg eGFP and 0.55 μg mCherry (negative control) plasmids. After 2 hours, compound I-1b was delivered to the experimental group. After 48 h incubation, the Neuro-2a cells were fixed (4% paraformaldehyde in 15 min and stored in 1×PBS buffer) and further analyzed by Q2 FastFLIM system (ISS Inc.). The Neruo2a cells were monitored and captured under oil-immersion objective observation (Nikon Plan Apo 100×/numerical aperture (NA) 1.4). […]
The fitting method of the FastFLIM images were described in the “Experimental Section” of a previous publication (He, R. Y et al. Adv. Sci. 2020, 7 (2), 1901165). […] The FRET efficiency of oligomeric intermediates was calculated by the formula: […]
wherein τD is donor lifetime of eGFP only, and τDA denotes lifetime of intermediates. Then, the EFRET of each pixel to form the FRET maps as well as the histogram of EFRET (FIG. 12B) were calculated by ISS Software VistaVision. […]
To assess C-TDP-43 oligomeric intermediates, fluorescence lifetime imaging microscopy (FLIM) was employed to measure the efficiency of Forster resonance energy transfer (EFRET) of the fluorescence protein-tagged C-TDP-43 in the presence or absence of compound I-1b. […]

T1 sequence (Q13148 208-414 limits assumed): as above

averaged EFRET value ([1]; Neuro-2a cells expressing 2FP—C-TDP-43, 48 h, 28.12% without compound, 3.36% negative control): 22.4%
EFRET of the C-TDP-43 oligomeric intermediates (statistically, ISS VistaVision) ([1]; Neuro-2a cells, decreased from 48.92% without compound): 40.11%
Compound: CN(C)c1ccc(-c2nc3ccc(OCCOCCOCCNc4cccc5c4C(=O)N(C4CCC(=O)NC4=O)C5=O)cc3s2)cc1 (stereo not drawn) [I-1b, 4-((2-(2-(2-((2-(4-(dimethylamino)phenyl)benzo[d]thiazol-6-yl)oxy)ethoxy)ethoxy)ethyl)amino)-2-(2,6-dioxopiperidin-3-yl)isoindoline-1,3-dione]
degradation of eGFP-C-TDP-43, dose dependency (eGFP-C-TDP-43): degraded eGFP-C-TDP-43 in a dose-dependent manner
